Measurements reported in patent publication US20090269795A1, “Mutant alpha4betadelta GABAA receptor and methods of treating anxiety or irritability” (priority 2007, published 2009).
Where a name gives a salt, the structure may show the parent alone.

What was measured:
α4β2δ GABAA receptors = assay: Whole cell patch clamp of GABA-gated current, recombinant receptors in HEK-293 cells; assay type: cell-based, human or mouse α4, rat β2, human δ
Text: (§1) Recombinant receptors: Transfection—Plasmids obtained from S. Vicini (rat α1, α5, β2, β3 and γ2), P. Whiting (human α4 and δ) and N. L. Harrison (mouse α4) were propagated in E coli DH5α and prepared using Qiagen Maxi- or Midi-prep kits. (Rat, mouse and human α1, β2, β3 and γ2 subunits are identical or nearly identical.) All receptors were transfected at a 1:1:1 ratio, except α1β2γ2 (1:1:5)^12, α4βδ (5:1:5)^13 and α4β2γ2 (5:1:1). HEK-293 cells were maintained in medium (DMEM:Ham's F-12 1:1) supplemented with 10% fetal calf serum at 37° C. in a humid 5% CO2 atmosphere. Cells were transfected using calcium phosphate or Polyfect (Qiagen) and co-transfected with enhanced green fluorescent protein (ratio of DNA to eGFP was 6:1 or 10:1 depending on the DNA concentration) for visualization. α4-containing GABAA receptors required 2-3 d for maximal levels of expression; all other receptors were recorded 1-2 d after transfection. Because mouse α4 and human α4-containing receptors yielded the same results, the currents were averaged together.
Whole cell patch clamp recording—GABA-gated currents were recorded at room temperature (20-22° C.) at a holding potential of −50 mV^14. The pipet solution contained (in mM): N-methyl-D-glucamine chloride 120, Cs4BAPTA 5 (Calbiochem), Mg-ATP 5, and an ATP regeneration system (20 mM Tris phosphocreatine and creatine kinase). Internal [Cl^−] or the holding potential were varied, using gluconate as the anion, to alter the direction of Cl^− flow, corrected for the junction potential. In some cases, current-voltage curves were constructed using the peak current response to agonist or agonist+THP across a range of holding potentials (−60 to +60) applied as 10 mV steps, or as a voltage ramp. […] Traces are presented as the average of 3 traces after subtraction of the leak current. […] This rapid application technique yields currents with a rapid rise phase. THP was also bath applied 30 s prior to tests of steroid effects. Currents were recorded using an Axopatch 1D amplifier (Axon Instruments) filtered at 2 kHz (four-pole Bessel filter) and detected at 10 kHz (pClamp 5.1). Analysis of peak current was accomplished with pClamp 9.2 and Origin software (Microcal).
Following the recording, the patch was blown out, and the open tip potential recorded using solutions with a 5% difference in NaCl osmolarity to verify the approximate solution exchange time. The time constant (τ) for desensitization was approximated using non-linear curve fitting routines with Levenburg-Marquardt algorithms (Origin software, Microcal). Goodness of fit was determined by minimizing the sum of the squares of deviations of the theoretical curve from the experimental points.
Recombinant receptors: Human embryonic kidney (HEK)-293 cells were transfected with α4 β2δ or other indicated subunit combinations (see Supplementary Methods) and co-transfected with enhanced green fluorescent protein for visualization. GABA-gated currents were recorded at room temperature (20-22° C.) at a holding potential of −50 mV^17 using a pipet solution containing 120 mM: N-methyl-D-glucamine chloride. Internal [Cl^−] or the holding potential were varied to alter the direction of Cl^− flow. […] Currents were recorded using an Axopatch 1D amplifier (Axon Instruments) filtered at 2 kHz (four-pole Bessel filter), detected at 10 kHz and analyzed with pClamp 9.2. Desensitization rate was determined using non-linear curve-fitting routines (Origin, Microcal; see next section).
Further Studies with Recombinant receptors: Transfection—Plasmids obtained from S. Vicini (rat α1, α5, β2, β3 and y2), P. Whiting (human α4 and 6) and N. L. Harrison (mouse α4) were propagated in E coli DH5α and prepared using Qiagen Maxi- or Midi-prep kits. (Rat, mouse and human α1, β2, β3 and γ2 subunits are identical or nearly identical.) All receptors were transfected at a 1:1:1 ratio, except a132γ2 (1:1:5)^12, α4β28 (5:1:5)^13 and α4β2γ2 (5:1:1). […]

female C57BL6 mice = assay: Elevated plus maze (with or without restraint stress); assay type: in vivo, mouse; details: pre-administration before restraint stress; pubertal
Text: Animal subjects. Prepubertal and pubertal female C57BL6 mice (3½-6 weeks old, +/+ and δ^−/−1) were housed in a reverse light:dark cycle (12:12). Both sets of mice were originally supplied by G. Homanics (Univ. of Pittsburgh), and were bred on site, with +/+ mice supplemented from Jackson Laboratories (Bar Harbor, Me.). Initially, age-matched+/+littermates of the δ^−/−were used as controls, but because they were indistinguishable from C57BL6, data from both groups were pooled. Genotyping of the tails verified that mice were homozygous δ^−/−. Some animals (+/+ or δ^−/−) were injected with finasteride (1,(5α)-androstene-4-aza-3-one-N-tert-butyl-17β-carboxaminde, Steraloids, 50 mg kg^, −1 intraperitoneally, 3 days) to block THP synthesis^2 or oil vehicle on a daily basis 1-1.5 h before dark onset, when THP levels increase, and tested 30 min. later. The onset of puberty was determined by vaginal opening, and pubertal mice tested on the day of first metestrus, identified by vaginal morphology and verification of first estrus the previous day. Mice with vaginal smears representative of diestrus were excluded from the study. Individual stages of puberty were not distinguished, and pre-pubertal mice were used before any visible signs of pubertal development, assessed by development of the peri-vaginal area. In some cases, pubertal mice were injected with replacement THP (3α-OH-5β-pregnan-20-one, 10 mg kg^−1, intraperitoneally in oil) for three days before testing. Procedures were in accordance with the SUNY Downstate Institutional Animal Care and Use Committee.
Restraint stress. In order to test the effect stress-induced release of THP^6,46,47 on anxiety, mice were restrained in a clear Plexiglas tube-type holder (Harvard Apparatus) for 45 min. and tested 20 min. later on the elevated plus maze (see Supplementary Methods). Open arm time was evaluated for 5 min. on the elevated plus maze. A decrease in open arm time reflects an increase in anxiety^18. In all cases, the results from each mouse tested after restraint was expressed relative to the averaged results from the sham controls, which were identical to the stressed animals (age, genotype, sex, drug-injected), except that they were not subjected to restraint stress.
Elevated plus maze. Testing rodent behavior on the elevated plus maze is an established animal model of anxiety^31. The plus maze consists of four 8×35 cm arms at 90° angles, elevated 57 cm above the floor. Two arms are enclosed by 33 cm walls, and two arms have no walls (“open arms”). […] Each animal was initially acclimated to the room for 30 min-1 h before being placed in the center of the maze, and exploratory activity recorded for 5 min. […]

hippocampal THP levels = assay: Radioimmunoassay of hippocampal 3α,5α-THP levels; assay type: in vivo, mouse; details: administration of 5α-reductase blocker
Text: Animal subjects. Prepubertal and pubertal female C57BL6 mice (3½-6 weeks old, +/+ and δ^−/−1) were housed in a reverse light:dark cycle (12:12). Both sets of mice were originally supplied by G. Homanics (Univ. of Pittsburgh), and were bred on site, with +/+ mice supplemented from Jackson Laboratories (Bar Harbor, Me.). Initially, age-matched+/+littermates of the δ^−/−were used as controls, but because they were indistinguishable from C57BL6, data from both groups were pooled. Genotyping of the tails verified that mice were homozygous δ^−/−. […] The onset of puberty was determined by vaginal opening, and pubertal mice tested on the day of first metestrus, identified by vaginal morphology and verification of first estrus the previous day. […] Individual stages of puberty were not distinguished, and pre-pubertal mice were used before any visible signs of pubertal development, assessed by development of the peri-vaginal area. […]
Radioimmunoassay for 3α,5α-THP. Hippocampal levels of 3α,5α-THP were assessed by radioimmunoassay (RIA) by C. […] Sample tube concentrations were calculated using the logit-log method^6, interpolation of the standards, and correction for recovery. […]

α4β2γ2 receptors = assay: Whole cell patch clamp of GABA-gated current, recombinant receptors in HEK-293 cells; assay type: cell-based, human or mouse α4, rat β2, rat γ2
Text: as §1
Whole cell patch clamp recording—GABA-gated currents were recorded at room temperature (20-22° C.) at a holding potential of −50 mV^14. […] Currents were recorded using an Axopatch 1D amplifier (Axon Instruments) filtered at 2 kHz (four-pole Bessel filter) and detected at 10 kHz (pClamp 5.1). […]

[1] = test system: CA1 hippocampal pyramidal cells (α4βδ receptors); assay: La3+-sensitive gaboxadol-induced current, whole cell patch clamp, hippocampal slice; assay type: cell-based, mouse; details: 30 μM GBX, after puberty or THP Wd
[2] = test system: CA1 hippocampal pyramidal cells; assay: Input resistance and neuronal excitability (spiking), hippocampal slice; assay type: cell-based, mouse; details: puberty
Procedure: Tonic current was recorded as the difference current produced by 120 μM gabazine, which blocks all GABAA receptor, before and after 30 nM THP^24. Current was also recorded in response to 2 s 10 mV steps in the holding potential, and current-voltage curves generated to the steady-state current. Because fast-inactivating conductances would not be excluded in a voltage ramp, stable steady-state current responses were used instead to construct the current-voltage (IV) curves. Input resistance (Rm) was calculated from the current response to voltage steps from −60 to −40 mV using Ohm's Law. The reversal potential was determined by the […] of the IV curve (−90 to −10 mV). The gabazine-sensitive slope conductance was assessed as the slope of the linear portion of outward current plot recorded before and after THP after subtraction of the gabazine-generated current (in the presence of L-655,708 to block α5-GABAA receptors). Only data with a stable baseline and pipet access resistance <10 MΩ were included in the analysis.
Effects of THP on cell excitability were tested by monitoring spiking using cell attached patch recordings^31 in voltage clamp mode (−40 mV holding potential, 150 mM NaCl intrapipet solution) or assessing the current threshold to spiking and spike frequency in current clamp mode (0.01-0.3 nA steps, starting from −1 nA, 1 s duration). (More complete details are supplied in the Supplementary Methods.)

[3] = test system: CA1 hippocampal pyramidal cell dendrites; assay: Tight-seal cell-attached current-clamp recording during dendritic agonist application; assay type: cell-based, mouse; details: 5 μM; stratum radiatum; pubertal
Procedure: Tonic current was recorded as the difference current produced by the selective GABAA receptor antagonist gabazine (120 μM) before and after 30 nM THP^4,29, while gramicidin perforated-patch recordings^33 were accomplished using 140 mM KCl plus 25 μg ml^−1 gramicidin in the pipet solution, recorded when the access resistance dropped to <60 MΩ after tight seal formation. Estimates of the direction of Cl^− current were obtained by recording using tight-seal cell-attached techniques^31 (>1 GΩ seal) in current clamp mode. A downward deflection signified outward (i.e., hyperpolarizing) Cl^− current.
To determine whether THP inhibition of GABAergic currents at puberty was a physiological phenomenon, we initially verified that GABA-gated currents were outward in CA1 hippocampal pyramidal cell dendrites at the onset of puberty. […] The voltage change was recorded in current clamp mode from the soma using tight-seal cell attached techniques at a holding current of 0 pA^31.

CC(=O)[C@H]1CC[C@H]2[C@@H]3CC[C@H]4C[C@@H](O)CC[C@]4(C)[C@H]3CC[C@]12C (single isomer, unassigned; isomer 3) [3β-OH isomer, 3βOH-5α[β]-pregnan-20-one]
inhibitory effect on outward GABA-gated current (α4β2δ GABAA receptors; isomer selectivity, FIG. 1e): selective for the active 3α-OH isomer, but not the inactive 3,3-OH isomer
effect on stress-induced increase in anxiety (female C57BL6 mice): prevented the stress-induced increase in anxiety

CC(C)(C)NC(=O)[C@H]1CC[C@H]2[C@@H]3CC[C@H]4NC(=O)C=C[C@]4(C)[C@H]3CC[C@]12C [5α-reductase blocker, 1,(5α)-androstene-4-aza-3-one-N-tert-butyl-17β-carboxaminde]
decline in hippocampal THP levels (hippocampal THP levels): 58±10%

NCCCC(=O)O [GABA]
GABA EC20 (α4β2γ2 receptors): 5000 nM

[La+3] [La^3+]
reduction of GBX-generated current ([1]; 300 μM La3+): 50-70%

CCN(c1ccccc1)c1cc(=NC)n(C)c(C)n1.Cl [ZD 7288]
effect of Ih blockade on excitatory effect of THP ([2]; 20 μM ZD 7288): did not prevent the excitatory effect of THP

COc1ccc(-c2ccc(=N)n(CCCC(=O)O)n2)cc1 [gabazine, 6-imino-3-(4-methyoxyphenyl)-1 (6H)-pyridazinebutanoic acid hydrobromide]
effect on THP-induced increase of input resistance ([2]; 120 μM gabazine pre-applied): prevented

Oc1noc2c1CCNC2 [gaboxadol, 4,5,6,7-Tetrahydroisoxazolo[5,4-c]pyridin-3-ol]
GBX-generated current vs pre-pubertal slices [1]: significantly larger current
change in membrane potential on dendritic application [3]: downward shift of the membrane potential
